# Reference: patent US12195427B2, “MASP-2 inhibitors and methods of use” (priority 2018, dated 2025)
# pIC50, pKi: −log10 of the molar value. Structures can show the parent of a compound that is named as a salt.
# Columns and labels:
# MASP-2 (CCP1-CCP2-SP) = MASP-2 (CCP1-CCP2-SP) (Homo sapiens (Human), UniProt O00187); test: Enzymatic Assay for MASP-2 (fluorogenic substrate); type: biochemical
# human α-thrombin = human α-thrombin (Homo sapiens (Human), UniProt P00734); test: Enzymatic Assay for Thrombin (Boc-VPR-AMC); type: biochemical
# MASP-2 CCP2-SP = MASP-2 CCP2-SP (Homo sapiens (Human), UniProt O00187); test: MASP-2 co-crystallization, X-ray crystallography and structure analysis (H-bonds, van der Waals contacts); parameters: van der Waals contact distance, MASP-2 HIS 483 atom CD2 / van der Waals contact distance, MASP-2 HIS 483 atom NE2 / van der Waals contact distance, SER 654 C to compound atom / van der Waals contact distance, SER 654 O to compound atom / van der Waals contact distance, TRP 655 C to compound atom / van der Waals contact distance, MASP-2 GLY 528 atom CA / van der Waals contact distance TRP 655 atom CZ3 / van der Waals contact distance TRP 655 atom N / van der Waals contact distance TRP 655 atom CE3 / van der Waals contact distance GLY 656 atom C / van der Waals contact distance GLY 656 atom CA / van der Waals contact distance GLY 656 atom O / van der Waals contact distance, MASP-2 TYR 607 atom CD1 / van der Waals contact distance, MASP-2 PRO 606 atom O / d(C3,CA1) / d(CA1,N1)2 / d(H4,O1) / d(H4,O2) / d(O1,O2) / d(CA1,O2) / d(CA6,O1) / d(CA6,O2) / d(CA1,C5) / d(O2,H3) / d(N2,C2) / d(CA5,N2) / d(N2,C4) / d(N2,C6) / d(N2,CA3) / d(N2,O3) / d(O4,H2): unit not given beside the values; conditions: for van der Waals contact distance, MASP-2 amino acid atom to compound atom: ARG 630;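 as to Ligand-pharmacophore element distance, pharmacophore element C2: distance from averaged pharmacophore element to bound ligand; missing value means element absent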;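 as to Ligand-pharmacophore element distance, pharmacophore element C3: distance from averaged pharmacophore element to bound ligand; missing value means element absent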;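 as to Ligand-pharmacophore element distance, pharmacophore element C4: distance from averaged pharmacophore element to bound ligand; missing value means element absent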;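 as to Ligand-pharmacophore element distance, pharmacophore element C5: distance from averaged pharmacophore element to bound ligand; missing value means element absent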
# MASP-2 CCP2-SP, sequence (O00187 445-686): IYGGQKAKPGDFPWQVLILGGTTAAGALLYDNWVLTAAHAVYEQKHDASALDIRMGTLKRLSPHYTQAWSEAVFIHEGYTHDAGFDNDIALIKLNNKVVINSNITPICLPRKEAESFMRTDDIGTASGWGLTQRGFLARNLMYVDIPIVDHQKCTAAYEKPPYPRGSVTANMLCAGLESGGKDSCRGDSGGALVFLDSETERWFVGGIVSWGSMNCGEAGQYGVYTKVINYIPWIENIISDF
# MASP-2 CCP2-SP, sequence (O00187 364-432 partner): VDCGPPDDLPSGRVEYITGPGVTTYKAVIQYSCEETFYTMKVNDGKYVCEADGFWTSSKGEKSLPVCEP
# In short: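 Soaked crystals of recombinant CCP2-SP (E. coli) yield the structures, phased by molecular replacement on 1Q3X pieces. Hydrophobic or nonbonded contacts can also cover atom pairs that are potential hydrogen bonds.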
# Lectin Pathway = Lectin Pathway Activation Assay in Human Serum (mannan-coated ELISA, C3c detection); type: biochemical; conditions: 1% human serum
# Protocol: Microtiter ELISA plate was coated with mannan from Saccharomyces cerevisiae (Sigma-Aldrich, M7504) for overnight at 4° C. in coating buffer [15 mM Na2CO3, 35 mM NaHCO3].
# [1] = Table A5-1 pharmacophore: distance between elements, S2/S1 region
# [2] = Table A5-2 pharmacophore distance, S3/S4 region
# [3] = Table A7-1, between pharmacophore elements of the bound compound
# [4] = Table A7-2, between pharmacophore elements of the bound compound
# [5] = Table A8-6, nearest protein atom in cell to the left
# MASP-2 (CCP1-CCP2-SP), sequence (O00187 445-686): as the sequence (O00187 445-686) above
smiles,measurement,setting,value
C[C@H](NC(=O)[C@H](N)CCc1cc(Cl)cc(Cl)c1)C(=O)NCc1ccc(C(=N)N)cc1 [compound 1118],pKi,MASP-2 (CCP1-CCP2-SP),> 6.30
same,pKi,human α-thrombin,> 6.30
same,H-bond distance to MASP-2 GLY 656 atom N,"MASP-2 CCP2-SP; Table A1 (H-Bonds), GLY 656 N",3.07
same,H-bond distance to MASP-2 GLY 656 atom O,"MASP-2 CCP2-SP; Table A1 (H-Bonds), GLY 656 O",2.77
same,H-bond distance to MASP-2 SER 628 atom OG,"MASP-2 CCP2-SP; Table A1 (H-Bonds), SER 628 OG",3.18
same,H-bond distance to MASP-2 SER 654 atom O,"MASP-2 CCP2-SP; Table A1 (H-Bonds), SER 654 O",2.88
same,H-bond distance to MASP-2 SER 657 atom O,"MASP-2 CCP2-SP; Table A1 (H-Bonds), SER 657 O",2.93
same,"van der Waals contact distance, MASP-2 HIS 483 atom CD2",MASP-2 CCP2-SP; Table A2-1,3.64
same,"van der Waals contact distance, MASP-2 PHE 529 atom CD1",MASP-2 CCP2-SP; Table A2-3,3.52
same,"van der Waals contact distance, MASP-2 TYR 607 atom CA",MASP-2 CCP2-SP; Table A2-4,3.79
same,"van der Waals contact distance, MASP-2 amino acid atom to compound atom","MASP-2 CCP2-SP; Table A2-9, AA atoms CG, CZ",3.85
same,"van der Waals contact distance, MASP-2 amino acid atom to compound atom","MASP-2 CCP2-SP; Table A2-9 second part, AA atoms N, NE, NH1",3.67
same,"van der Waals contact distance, VAL 653 CG1 to compound atom",MASP-2 CCP2-SP; Table A2-11,3.86
same,van der Waals contact distance GLY 656 atom C,"MASP-2 CCP2-SP; Table A2-13, MASP-2 GLY 656 C",3.63
same,van der Waals contact distance TRP 655 atom CZ3,"MASP-2 CCP2-SP; Table A2-13, MASP-2 TRP 655 CZ3",3.69
same,van der Waals contact distance TRP 655 atom N,"MASP-2 CCP2-SP; Table A2-13, MASP-2 TRP 655 N",3.76
same,van der Waals contact distance SER 657 atom C,"MASP-2 CCP2-SP; Table A2-14, MASP-2 SER 657 C, columns c12-c13 (inferred)",3.8
same,"Ligand-pharmacophore element distance, pharmacophore element C2","MASP-2 CCP2-SP; Table A4-1, element C2",0
same,"Ligand-pharmacophore element distance, pharmacophore element C3","MASP-2 CCP2-SP; Table A4-1, element C3",0
same,"Ligand-pharmacophore element distance, pharmacophore element C4","MASP-2 CCP2-SP; Table A4-1, element C4",2.54
same,"Ligand-pharmacophore element distance, pharmacophore element C5","MASP-2 CCP2-SP; Table A4-1, element C5",0
same,"Ligand-pharmacophore element distance, pharmacophore element C6","MASP-2 CCP2-SP; Table A4-1, element C6",1.17
same,"Ligand-pharmacophore element distance, pharmacophore element C7","MASP-2 CCP2-SP; Table A4-1, element C7",0
same,"Ligand-pharmacophore element distance, pharmacophore element CA1","MASP-2 CCP2-SP; Table A4-1, element CA1",0.43
same,"Ligand-pharmacophore element distance, pharmacophore element CA2","MASP-2 CCP2-SP; Table A4-1, element CA2",0.69
same,"Ligand-pharmacophore element distance, pharmacophore element CA3","MASP-2 CCP2-SP; Table A4-1, element CA3",0
same,"Ligand-pharmacophore element distance, pharmacophore element CA4","MASP-2 CCP2-SP; Table A4-1, element CA4",0
same,"Ligand-pharmacophore element distance, pharmacophore element CA5","MASP-2 CCP2-SP; Table A4-1, element CA5",0
same,"Ligand-pharmacophore element distance, pharmacophore element CA6","MASP-2 CCP2-SP; Table A4-1, element CA6",0
same,"d(CA1,N1)",MASP-2 CCP2-SP; [1],3.55
same,"d(CA1,O1)",MASP-2 CCP2-SP; [1],4.35
same,"d(CA1,O2)",MASP-2 CCP2-SP; [1],4.33
same,"d(H4,O1)",MASP-2 CCP2-SP; [1],4.85
same,"d(H4,O2)",MASP-2 CCP2-SP; [1],4.52
same,"d(O1,O2)",MASP-2 CCP2-SP; [1],3.25
same,"d(N2,C4)",MASP-2 CCP2-SP; [2],7.40
same,"d(N2,C4)4",MASP-2 CCP2-SP; [2],7.40
same,"d(N2,C6)",MASP-2 CCP2-SP; [2],8.27
same,"d(N2,CA2)",MASP-2 CCP2-SP; [2],5.84
same,"d(O2,H3)",MASP-2 CCP2-SP; [2],5.85
same,"d(O2,N2)",MASP-2 CCP2-SP; [2],2.67
same,"a(CA1, O1, O2)",MASP-2 CCP2-SP; Table A6-1 pharmacophore angle,111.55
same,"a(O1, O2, H4)",MASP-2 CCP2-SP; Table A6-1 pharmacophore angle,139.63
same,"A(N1, CA1, O1) a)","MASP-2 CCP2-SP; Table A6-1 pharmacophore angle, all compounds with protonatable center N1 except Methyl-amino-pyridine",162.73
same,"a(O1, O2, H3)",MASP-2 CCP2-SP; Table A6-2 pharmacophore angle,152.79
same,"a(O1, O2, N2)",MASP-2 CCP2-SP; Table A6-2 pharmacophore angle,137.47
same,"a(O2, N2, C4)",MASP-2 CCP2-SP; Table A6-2 pharmacophore angle,162.84
same,"a(O2, N2, C4) 2",MASP-2 CCP2-SP; Table A6-2 pharmacophore angle,125.21
same,"a(O2, N2, C6)",MASP-2 CCP2-SP; Table A6-2 pharmacophore angle,88.59
same,"a(O2, N2, CA2)",MASP-2 CCP2-SP; Table A6-2 pharmacophore angle,154.60
same,"Pharmacophore torsion angle a(H4, O1, O2, H3)",MASP-2 CCP2-SP; [3],38.74
same,"Pharmacophore torsion angle a(H4, O1, O2, N2)",MASP-2 CCP2-SP; [3],128.20
same,"Pharmacophore torsion angle a(N1, CA1, O2, H4)",MASP-2 CCP2-SP; [3],−132.91
same,"Pharmacophore torsion angle a(O1, H4, O2, CA1)",MASP-2 CCP2-SP; [3],−65.17
same,"Pharmacophore torsion angle a(O1, O2, N2, C6)",MASP-2 CCP2-SP; [4],150.07
same,"Pharmacophore torsion angle a(O1, O2, N2, CA2)",MASP-2 CCP2-SP; [4],145.00
same,Pharmacophore protein distance to MET_658 (first MET_658 column),"MASP-2 CCP2-SP; Table A8-6, 6th residue column, nearest protein atom in cell to the left",1.45
same,Pharmacophore protein distance to MET_658 (second MET_658 column),"MASP-2 CCP2-SP; Table A8-6, 9th residue column, nearest protein atom in cell to the left",3.28
same,Pharmacophore protein distance to GLY_528,MASP-2 CCP2-SP; [5],3.82
same,Pharmacophore protein distance to PHE_529,MASP-2 CCP2-SP; [5],3.01
same,Pharmacophore protein distance to PRO_608,MASP-2 CCP2-SP; [5],4.83
same,Pharmacophore protein distance to SER_611,MASP-2 CCP2-SP; [5],3.12
same,Pharmacophore protein distance to TRP_655,"MASP-2 CCP2-SP; Table A8-6, pharmacophore elements C6, CA3, O3, H1, nearest protein atom in cell to the left",3.71
"COc1cc(C[C@@H]2CN[C@@H](C(=O)N[C@@H](C)C(=O)NCc3cc(Cl)ccc3-n3cnnn3)C2)cc(OC)c1 [compound 1419, (2R,4S)—N—((S)-1-((5-Chloro-2-(1H-tetrazol-1-yl)benzyl)amino)-1-oxopropan-2-yl)-4-(3,5-dimethoxybenzyl)pyrrolidine-2-carboxamide Trifluoroacetate salt]",pKi,MASP-2 (CCP1-CCP2-SP),> 6.30
same,pKi,human α-thrombin,> 6.30
same,pIC50,Lectin Pathway,> 7.30
